Measurements: patent US12180198B2, “Ribocil C antibiotics effective for Gram-negative pathogens” (THE BOARD OF TRUSTEES OF THE UNIVERSITY OF ILLINOIS, priority 2018, dated 2024)
Counter-ions that a name gives are not always drawn. Like-named read-outs stand apart in the source and are kept apart here.

Key:
H. sapiens IMR-90 = test: Cell viability, Alamar Blue; format: cell-based
Description: Cell culture. IMR90 cells were obtained from ATCC. IMR90 cells were grown in EMEM with 10% fetal bovine serum (Gemini Benchmark, Cat #100-106), 100 U/mL penicillin, and 100 μg/mL streptomycin. All cells were cultured at 37° C. in a 5% CO2 environment. Media was prepared by the University of Illinois School of Chemical Sciences Cell Media Facility. Sex and age of cell lines: IMR90 ([…]).
Cell viability. Cells seeded (IMR90: 5,000 cells/well) a 96-well plate (Greiner Bio-One, Cat #655180) and were allowed to attach overnight. Cells were treated with investigational compounds in DMSO (30 μM, 1% DMSO final, 100 μL/well). Raptinal (100 μM) was used as a dead control. After 24 h post-treatment, media was exchanged with compound-free media. After 72 h post-treatment, cell viability was assessed using the Alamar Blue method. Stock Alamar Blue solution [10 μL, 440 μM resazurin (Sigma-Aldrich, Cat #R7017) in sterile 1×PBS] was added to each well, and plate was incubated […]. Conversion of Alamar Blue was measured with plate reader (SpectraMax M3, Molecular Devices) by fluorescence (ex 555 nm, em 585 nm, cutoff 570 nm, autogain). Percent death was determined by normalizing to DMSO-treated cells and raptinal-treated cells.

[1] = system: E. coli strains with intact outer membranes; test: MIC, micro-dilution broth method (text summary); format: cell-based; conditions: Escherichia coli
Description: FIG. 2. Antimicrobial activity of Debio-1452 and derivatives. MIC values were determined using the micro-dilution broth method as outlined by the Clinical and Laboratory Standards Institute (clsi.org/). All experiments were performed in biological triplicate.
Antimicrobial susceptibility tests. Susceptibility testing was performed in biological triplicate, using the micro-dilution broth method as outlined by the Clinical and Laboratory Standards Institute. Bacteria were cultured with cation-adjusted Muller-Hinton broth (Sigma-Aldrich, Cat #90922) in round-bottom 96-well plates (Corning, Cat #3788). Human serum (pooled gender, 0.2 μm filtered) was purchased from BioIVT (Hicksville, NY).

A. baumannii BAA-2093 = test: Bioactivity against exemplary strains of bacteria (Table 5A); format: cell-based; conditions: Strain 3: A. baumannii BAA-2093
E. coli FabI = E. coli FabI (Escherichia coli, UniProt P0AEK4); test: In vitro FabI inhibition assay; format: biochemical; conditions: 20 nM enzyme
Sequence of E. coli FabI (P0AEK4 whole entry): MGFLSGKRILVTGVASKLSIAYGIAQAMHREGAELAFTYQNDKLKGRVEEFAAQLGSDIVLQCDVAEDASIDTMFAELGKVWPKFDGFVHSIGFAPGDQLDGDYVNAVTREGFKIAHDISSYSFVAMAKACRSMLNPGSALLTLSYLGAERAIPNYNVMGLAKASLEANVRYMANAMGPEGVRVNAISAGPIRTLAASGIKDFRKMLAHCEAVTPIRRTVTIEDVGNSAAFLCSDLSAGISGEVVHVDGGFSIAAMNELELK
Description: Expression and purification of E. coli FabI. E. coli BL21 (DE3) pLysS (Novagen) were transformed with pET15-ecFabI. Overnight culture (10 mL) in LB supplemented with 50 μg/mL ampicillin from single colony was diluted into 1 L LB+50 μg/mL ampicillin. Cells were grown at 37° C., 250 rpm until OD600 reached 0.8. Culture was cooled to 18° C. and induced with 0.5 mM IPTG for 18 h at 18° C. Cells were harvested by centrifugation (5,000×g, 10 min, 4° C.). Cell pellets were flash frozen and store at −20° C. pending purification. Frozen cell pellets were thawed on ice and resuspended (5 mL per gram wet pellet, typically 20-30 mL) with 0.5% CHAPS, 1 mM PMSF, 1 μg/mL leupeptin, 1 μg/mL pepstatin A, and 2 μg/mL aprotinin in binding buffer [20 mM Tris (pH 7.9), 500 mM NaCl, 5 mM imidazole]. Cells were lysed by sonication on ice (30%, 10 s pulse, 20 s rest, 5 min total). Lysate was clarified by centrifugation (35,000×g, 1 h, 4° C.) and filtration through 0.2 μm syringe filter. Lysate was incubated with 5 mL Co-NTA agarose (HisPur cobalt resin, Thermo-Fisher Scientific Cat #89965, pre-equilibrated with binding buffer) for 30 min at 4° C. with gentle rocking. Agarose-containing lysate was transferred to column and flow through discarded. Column was washed with 2 column volumes of binding buffer followed by 10 column volumes of wash buffer [20 mM Tris (pH 7.9), 500 mM NaCl, 60 mM imidazole]. Protein was eluted with 15 mL elution buffer [20 mM Tris (pH 7.9), 500 mM NaCl, 300 mM imidazole]. […] Protein concentration was determined by BCA assay (ThermoFisher Cat #23227).
In vitro FabI inhibition assay. […] Plate was placed in plate-reader (SpectraMax 190, Molecular Devices) under temperature control (25° C.), and temperature was allowed to equilibrate. […] After shaking for 5 s, reaction progress was monitored by absorbance at 340 nm every 15 s for 90 min. Linear portion of reaction progress curve was fit using plate-reader software (SoftMax Pro 7.0). Percent activity was calculated relative to DMSO-only and no-enzyme controls in each plate. […]

`Cc1c(CN(C)C(=O)/C=C/c2cnc3c(c2)CCC(=O)N3)oc2ccccc12` [Debio-1452, (E)-N-methyl-N-((3-methylbenzofuran-2-yl)methyl)-3-(7-oxo-5,6,7,8-tetrahydro-1,8-naphthyridin-3-yl)acrylamide, reference compound] was tested, and the inhibition at 30 µM (H. sapiens IMR-90; H. sapiens IMR-90, 30 μM, 24 h exposure, viability at 72 h, read-out: % inhibition at 30 μM) was 16%, the MIC ([1]; E. coli strains with intact outer membranes, read-out: MIC) was greater than 32 µg/mL and the Bioactivity (A. baumannii BAA-2093) was 16. For the same compound, the “inhibition of E. coli FabI in vitro (in words)” value (E. coli FabI) was “potent FabI inhibitors”.

`Cc1c(CN(C)C(=O)/C=C/c2cnc3c(c2)CC(N)C(=O)N3)oc2ccccc12` (stereo not drawn) [Debio-1452-NH3, (E)-3-(6-amino-7-oxo-5,6,7,8-tetrahydro-1,8-naphthyridin-3-yl)-N-methyl-N-((3-methylbenzofuran-2-yl)methyl)acrylamide hydrochloride] was tested, and the “toxicity to mammalian cells grown in culture (in words)” value (H. sapiens IMR-90; 24 hour exposures) was “little toxicity”, the inhibition at 30 µM (H. sapiens IMR-90; Homo sapiens, IMR-90, read-out: % inhibition at 30 μM) was 30% and the MIC [1] was 4 µg/mL. For the same compound, the Bioactivity (A. baumannii BAA-2093) was 4 and the “inhibition of E. coli FabI in vitro (in words)” value (E. coli FabI) was “potent FabI inhibitors”.
